Source: patent US20250041429A1, “COMPOUND HAVING BTK PROTEIN DEGRADATION ACTIVITY, AND MEDICAL USES THEREOF” (UBIX THERAPEUTICS, INC., priority 2021, published 2025)

Target: T1, BTK protein (Homo sapiens, UniProt Q06187)
T1 construct: endogenous in cells; host or cells: TMD-8 cells
Test: Measurement of BTK protein degradation ability in TMD-8 cells (Western blotting)
Assay type: cell-based
Settings: harvested after 24 hours; for BTK degradation (%) 1 nM: compound 1 nM; for BTK degradation (%) 10 nM: compound 10 nM; for BTK degradation (%) 100 nM: compound 100 nM
Procedure, shortened: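 TMD-8 cells (1×10^6/mL) were treated for 24 h with compound at 0.1, 1, 10 μM or 0.0001–0.1 μM, with DMSO as vehicle control. RIPA lysates were normalized by BCA assay. BTK was detected by Western blot with anti-BTK, using GAPDH or β-actin as loading controls, and imaged on LI-COR Odyssey.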

T1 sequence (Q06187 whole entry): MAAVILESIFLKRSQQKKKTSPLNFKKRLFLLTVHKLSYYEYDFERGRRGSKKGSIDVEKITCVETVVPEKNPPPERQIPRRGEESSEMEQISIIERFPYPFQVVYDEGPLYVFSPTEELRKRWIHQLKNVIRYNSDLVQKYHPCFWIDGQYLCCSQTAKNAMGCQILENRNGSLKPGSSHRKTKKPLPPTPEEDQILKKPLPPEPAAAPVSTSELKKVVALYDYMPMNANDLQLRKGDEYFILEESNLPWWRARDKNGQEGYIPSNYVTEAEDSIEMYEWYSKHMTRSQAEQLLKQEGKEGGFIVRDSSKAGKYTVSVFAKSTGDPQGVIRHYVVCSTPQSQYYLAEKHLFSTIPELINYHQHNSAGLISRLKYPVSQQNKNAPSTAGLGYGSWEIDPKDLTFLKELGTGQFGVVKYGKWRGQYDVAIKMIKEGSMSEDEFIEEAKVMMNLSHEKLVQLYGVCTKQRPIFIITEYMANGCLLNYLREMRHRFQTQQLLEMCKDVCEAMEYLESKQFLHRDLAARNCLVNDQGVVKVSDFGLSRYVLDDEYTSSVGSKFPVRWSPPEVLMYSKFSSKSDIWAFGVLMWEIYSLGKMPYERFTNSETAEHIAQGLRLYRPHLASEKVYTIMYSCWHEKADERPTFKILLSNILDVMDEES

SMILES	BTK degradation (%) 1 nM [%]	BTK degradation (%) 10 nM [%]	BTK degradation (%) 100 nM [%]
Cc1cc(-c2ccnc(Nc3ccc(N4CCN(CC5CN(c6ccc7c(c6)C(=O)N(C6CCC(=O)NC6=O)C7=O)C5)CC4)cc3)n2)ccc1CNC(=O)c1cnn(C(C)(C)C)c1 (stereo not drawn) [Example 31, 1-(tert-butyl)-N-(4-(2-((4-(4-((1-(2-(2,6-dioxopiperidin-3-yl)-1,3-dioxoisoindolin-5-yl)azetidin-3-yl)methyl)piperazin-1-yl)phenyl)amino)pyrimidin-4-yl)-2-methylbenzyl)-1H-pyrazole-4-carboxamide]	61.5	94.5	98.5
Cc1cc(-c2ccnc(Nc3ccc(N4CCN(CC5CN(c6ccc7c(c6)C(=O)N(C6CCC(=O)NC6=O)C7=O)C5)CC4)cc3)n2)ccc1CNC(=O)c1cn(C(C)(C)C)nn1 (stereo not drawn) [Example 32, 1-(tert-butyl)-N-(4-(2-((4-(4-((1-(2-(2,6-dioxopiperidin-3-yl)-1,3-dioxoisoindolin-5-yl)azetidin-3-yl)methyl)piperazin-1-yl)phenyl)amino)pyrimidin-4-yl)-2-methylbenzyl)-1H-1,2,3-triazole-4-carboxamide]	58.5	92	98.5
Cc1cc(-c2ccnc(Nc3ccc(N4CCN(CC5CCN(c6ccc7c(c6)C(=O)N(C6CCC(=O)NC6=O)C7=O)CC5)CC4)cc3)n2)ccc1CNC(=O)c1cnn(C(C)C)c1 (stereo not drawn) [Example 33, N-(4-(2-((4-(4-((1-(2-(2,6-dioxopiperidin-3-yl)-1,3-dioxoisoindolin-5-yl)piperidin-4-yl)methyl)piperazin-1-yl)phenyl)amino)pyrimidin-4-yl)-2-methylbenzyl)-1-isopropyl-1H-pyrazole-4-carboxamide]	49.5	93.5	99.5
Cc1cc(-c2ccnc(Nc3ccc(N4CCN(CC5CN(c6ccc7c(c6)C(=O)N(C6CCC(=O)NC6=O)C7=O)C5)CC4)cc3)n2)ccc1CNC(=O)c1cnn(C(C)C)c1 (stereo not drawn) [Example 34, N-(4-(2-((4-(4-((1-(2-(2,6-dioxopiperidin-3-yl)-1,3-dioxoisoindolin-5-yl)azetidin-3-yl)methyl)piperazin-1-yl)phenyl)amino)pyrimidin-4-yl)-2-methylbenzyl)-1-isopropyl-1H-pyrazole-4-carboxamide]	41	90	99.5
Cc1cc(-c2ccnc(Nc3cnn(C4CCN(CC5CCN(c6ccc7c(c6)C(=O)N(C6CCC(=O)NC6=O)C7=O)CC5)CC4)c3)n2)ccc1CNC(=O)c1cnn(C(C)C)c1 (stereo not drawn) [Example 35, N-(4-(2-((1-(1-((1-(2-(2,6-dioxopiperidin-3-yl)-1,3-dioxoisoindolin-5-yl)piperidin-4-yl)methyl)piperidin-4-yl)-1H-pyrazol-4-yl)amino)pyrimidin-4-yl)-2-methylbenzyl)-1-isopropyl-1H-pyrazole-4-carboxamide]	50.5	93.5	99.5
Cc1cc(-c2ccnc(Nc3cnn(C4CCN(CC5CN(c6ccc7c(c6)C(=O)N(C6CCC(=O)NC6=O)C7=O)C5)CC4)c3)n2)ccc1CNC(=O)c1cnn(C(C)C)c1 (stereo not drawn) [Example 36, N-(4-(2-((1-(1-((1-(2-(2,6-dioxopiperidin-3-yl)-1,3-dioxoisoindolin-5-yl)azetidin-3-yl)methyl)piperidin-4-yl)-1H-pyrazol-4-yl)amino)pyrimidin-4-yl)-2-methylbenzyl)-1-isopropyl-1H-pyrazole-4-carboxamide]	60	94	99
Cc1cc(-c2ccnc(Nc3cnn(C4CCN(CC5CCN(c6ccc7c(c6)C(=O)N(C6CCC(=O)NC6=O)C7=O)CC5)CC4)c3)n2)ccc1CNC(=O)c1cnn(C(C)(C)C)c1 (stereo not drawn) [Example 37, 1-(tert-butyl)-N-(4-(2-((1-(1-((1-(2-(2,6-dioxopiperidin-3-yl)-1,3-dioxoisoindolin-5-yl)piperidin-4-yl)methyl)piperidin-4-yl)-1H-pyrazol-4-yl)amino)pyrimidin-4-yl)-2-methylbenzyl)-1H-pyrazole-4-carboxamide]	54.5	92.5	99
Cc1cc(-c2ccnc(Nc3cnn(C4CCN(CC5CN(c6ccc7c(c6)C(=O)N(C6CCC(=O)NC6=O)C7=O)C5)CC4)c3)n2)ccc1CNC(=O)c1cnn(C(C)(C)C)c1 (stereo not drawn) [Example 38, 1-(tert-butyl)-N-(4-(2-((1-(1-((1-(2-(2,6-dioxopiperidin-3-yl)-1,3-dioxoisoindolin-5-yl)azetidin-3-yl)methyl)piperidin-4-yl)-1H-pyrazol-4-yl)amino)pyrimidin-4-yl)-2-methylbenzyl)-1H-pyrazole-4-carboxamide]	72.5	96	98.5
Cc1cc(-c2ccnc(Nc3cnn(C4CCN(CC5CCN(c6ccc7c(c6)C(=O)N(C6CCC(=O)NC6=O)C7=O)CC5)CC4)c3)n2)ccc1CNC(=O)c1cn(C(C)(C)C)nn1 (stereo not drawn) [Example 39, 1-(tert-butyl)-N-(4-(2-((1-(1-((1-(2-(2,6-dioxopiperidin-3-yl)-1,3-dioxoisoindolin-5-yl)piperidin-4-yl)methyl)piperidin-4-yl)-1H-pyrazol-4-yl)amino)pyrimidin-4-yl)-2-methylbenzyl)-1H-1,2,3-triazole-4-carboxamide]	65.5	93.5	98.5
Cc1cc(-c2ccnc(Nc3cnn(C4CCN(CC5CN(c6ccc7c(c6)C(=O)N(C6CCC(=O)NC6=O)C7=O)C5)CC4)c3)n2)ccc1CNC(=O)c1cn(C(C)(C)C)nn1 (stereo not drawn) [Example 40, 1-(tert-butyl)-N-(4-(2-((1-(1-((1-(2-(2,6-dioxopiperidin-3-yl)-1,3-dioxoisoindolin-5-yl)azetidin-3-yl)methyl)piperidin-4-yl)-1H-pyrazol-4-yl)amino)pyrimidin-4-yl)-2-methylbenzyl)-1H-1,2,3-triazole-4-carboxamide]	69.5	95.5	98
Cc1cc(-c2ccnc(Nc3ccc(C4CN(CC5CCN(c6ccc7c(c6)C(=O)N(C6CCC(=O)NC6=O)C7=O)CC5)C4)cc3)n2)ccc1CNC(=O)N1CC(OC(C)C)C1 (stereo not drawn) [Example 41, N-(4-(2-((4-(1-((1-(2-(2,6-dioxopiperidin-3-yl)-1,3-dioxoisoindolin-5-yl)piperidin-4-yl)methyl)azetidin-3-yl)phenyl)amino)pyrimidin-4-yl)-2-methylbenzyl)-3-isopropoxyazetidine-1-carboxamide]	81.5	100.0	100.0
Cc1cc(-c2ccnc(Nc3ccc(N4CCN(CC5CCN(c6cccc(OC7CCC(=O)NC7=O)c6)CC5)CC4)cc3)n2)ccc1CNC(=O)N1CC(OC(C)C)C1 (stereo not drawn) [Example 42, N-(4-(2-((4-(4-((1-(3-((2,6-dioxopiperidin-3-yl)oxy)phenyl)piperidin-4-yl)methyl)piperazin-1-yl)phenyl)amino)pyrimidin-4-yl)-2-methylbenzyl)-3-isopropoxyazetidine-1-carboxamide]	60.5	97.5	100.0
Cc1cc(-c2ccnc(Nc3ccc(N4CCN(CC5CCN(c6ccc(OC7CCC(=O)NC7=O)cc6)CC5)CC4)cc3)n2)ccc1CNC(=O)N1CC(OC(C)C)C1 (stereo not drawn) [Example 43, N-(4-(2-((4-(4-((1-(4-((2,6-dioxopiperidin-3-yl)oxy)phenyl)piperidin-4-yl)methyl)piperazin-1-yl)phenyl)amino)pyrimidin-4-yl)-2-methylbenzyl)-3-isopropoxyazetidine-1-carboxamide]	83.0	100.0	100.0
Cc1cc(-c2ccnc(Nc3ccc(C4CCN(CC5CN(c6ccc7c(c6)C(=O)N(C6CCC(=O)NC6=O)C7=O)C5)CC4)cc3)n2)ccc1CNC(=O)c1cnn(C(C)C)c1 (stereo not drawn) [Example 44, N-(4-(2-((4-(1-((1-(2-(2,6-dioxopiperidin-3-yl)-1,3-dioxoisoindolin-5-yl)azetidin-3-yl)methyl)piperidin-4-yl)phenyl)amino)pyrimidin-4-yl)-2-methylbenzyl)-1-isopropyl-1H-pyrazole-4-carboxamide]	66.0	95.0	99.0
Cc1cc(-c2ccnc(Nc3ccc(C4CCN(CC5CN(c6ccc7c(c6)C(=O)N(C6CCC(=O)NC6=O)C7=O)C5)CC4)cc3)n2)ccc1CNC(=O)c1cnn(C(C)(C)C)c1 (stereo not drawn) [Example 45, 1-(tert-butyl)-N-(4-(2-((4-(1-((1-(2-(2,6-dioxopiperidin-3-yl)-1,3-dioxoisoindolin-5-yl)azetidin-3-yl)methyl)piperidin-4-yl)phenyl)amino)pyrimidin-4-yl)-2-methylbenzyl)-1H-pyrazole-4-carboxamide]	45.5	89.5	98.0
Cc1cc(-c2ccnc(Nc3ccc(C4CCN(CC5CN(c6ccc7c(c6)C(=O)N(C6CCC(=O)NC6=O)C7=O)C5)CC4)cc3)n2)ccc1CNC(=O)c1cn(C(C)(C)C)nn1 (stereo not drawn) [Example 46, 1-(tert-butyl)-N-(4-(2-((4-(1-((1-(2-(2,6-dioxopiperidin-3-yl)-1,3-dioxoisoindolin-5-yl)azetidin-3-yl)methyl)piperidin-4-yl)phenyl)amino)pyrimidin-4-yl)-2-methylbenzyl)-1H-1,2,3-triazole-4-carboxamide]	46.5	91.0	98.0
